Experimental data published in PubChem BioAssay AID2060501 (Molecular Pharmacology Branch, DTP, NCI, 2025).

Test system: 282377-053-R-J1-PDC complex spheroids, viability
Assay: Anticancer human tumor 282377-053-R-J1-PDC patient-derived colon adenocarcinoma cell line growth inhibition [GQUAD]
Settings: for IC50: curve of first compound; for viability, T/C: stronger effect = lower value
Method in brief: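 Viability of tumor cells grown as complex spheroids with endothelial and stromal cells, exposed to drug combinations. Top concentration at or near clinical Cmax (else 10 microM), diluted in half-log increments.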

[1] = second compound 0.0316 µM, first compound 0.000999 µM
[2] = second compound 0.0316 µM, first compound 0.00316 µM
[3] = second compound 0.0316 µM, first compound 0.00999 µM
[4] = second compound 0.0316 µM, first compound 0.0316 µM
[5] = second compound 0.0316 µM, first compound 0.0999 µM
[6] = second compound 0.0316 µM, first compound 0.316 µM
[7] = second compound 0.1 µM, first compound 0.000999 µM
[8] = second compound 0.1 µM, first compound 0.00316 µM
[9] = second compound 0.1 µM, first compound 0.00999 µM
[10] = second compound 0.1 µM, first compound 0.0316 µM
[11] = second compound 0.1 µM, first compound 0.0999 µM
[12] = second compound 0.1 µM, first compound 0.316 µM
[13] = second compound 0.316 µM, first compound 0.000999 µM
[14] = second compound 0.316 µM, first compound 0.00316 µM
[15] = second compound 0.316 µM, first compound 0.00999 µM
[16] = second compound 0.316 µM, first compound 0.0316 µM
[17] = second compound 0.316 µM, first compound 0.0999 µM
[18] = second compound 0.316 µM, first compound 0.316 µM
[19] = second compound 1 µM, first compound 0.000999 µM
[20] = second compound 1 µM, first compound 0.00316 µM
[21] = second compound 1 µM, first compound 0.00999 µM
[22] = second compound 1 µM, first compound 0.0316 µM
[23] = second compound 1 µM, first compound 0.0999 µM
[24] = second compound 1 µM, first compound 0.316 µM
[25] = second compound 3.16 µM, first compound 0.000999 µM
[26] = second compound 3.16 µM, first compound 0.00316 µM
[27] = second compound 3.16 µM, first compound 0.00999 µM
[28] = second compound 3.16 µM, first compound 0.0316 µM
[29] = second compound 3.16 µM, first compound 0.0999 µM
[30] = second compound 3.16 µM, first compound 0.316 µM
[31] = second compound 10 µM, first compound 0.000999 µM
[32] = second compound 10 µM, first compound 0.00316 µM
[33] = second compound 10 µM, first compound 0.00999 µM
[34] = second compound 10 µM, first compound 0.0316 µM
[35] = second compound 10 µM, first compound 0.0999 µM
[36] = second compound 10 µM, first compound 0.316 µM
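Note: spheroids exposed to compounds for 7 days before readout.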
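Throughout, for viability, T/C: percent of vehicle DMSO control viability with 100% = untreated-like growth.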

SMILES: CCc1c2c(nc3ccc(O)cc13)-c1cc3c(c(=O)n1C2)COC(=O)[C@]3(O)CC + Cc1[nH]c2ccc(F)cc2c1-c1nc2c3cccnc3c3ncccc3c2[nH]1
- IC50 (second compound 0.0316 µM): 0.0278 µM
- IC50 (second compound 0.1 µM): 0.0267 µM
- IC50 (second compound 0.316 µM): 0.0352 µM
- IC50 (second compound 1 µM): 0.0205 µM
- IC50 (second compound 3.16 µM): 0.00328 µM
- IC50 (second compound 10 µM): < 0.000999 µM
- viability, T/C [1]: 125%
- viability, T/C [2]: 79.7%
- viability, T/C [3]: 65.6%
- viability, T/C [4]: 54.4%
- viability, T/C [5]: 37.9%
- viability, T/C [6]: 29.4%
- viability, T/C [7]: 112%
- viability, T/C [8]: 99.3%
- viability, T/C [9]: 64%
- viability, T/C [10]: 49.8%
- viability, T/C [11]: 34.2%
- viability, T/C [12]: 25.5%
- viability, T/C [13]: 107%
- viability, T/C [14]: 83.3%
- viability, T/C [15]: 64.4%
- viability, T/C [16]: 47.9%
- viability, T/C [17]: 46.8%
- viability, T/C [18]: 26.9%
- viability, T/C [19]: 87.2%
- viability, T/C [20]: 77.6%
- viability, T/C [21]: 52.6%
- viability, T/C [22]: 47%
- viability, T/C [23]: 36.6%
- viability, T/C [24]: 25.9%
- viability, T/C [25]: 71.5%
- viability, T/C [26]: 51%
- viability, T/C [27]: 33.4%
- viability, T/C [28]: 25.9%
- viability, T/C [29]: 17.1%
- viability, T/C [30]: 11.8%
- viability, T/C [31]: 21.1%
- viability, T/C [32]: 29.2%
- viability, T/C [33]: 12.5%
- viability, T/C [34]: 8.86%
- viability, T/C [35]: 9.45%
- viability, T/C [36]: 8.4%

SMILES: COc1cccc2c1C(=O)c1c(O)c3c(c(O)c1C2=O)CC(O)(C(=O)CO)CC3OC1CC(N)C(O)C(C)O1 (stereo not drawn) + Cc1cnc(CNC(=O)c2c(=O)c3ccc(N4CCCN(C)CC4)nc3n3c2sc2ccccc23)cn1
- IC50 (second compound 0.0316 µM): 0.97 µM
- IC50 (second compound 0.1 µM): 0.794 µM
- IC50 (second compound 0.316 µM): 0.545 µM
- IC50 (second compound 1 µM): 0.331 µM
- IC50 (second compound 3.16 µM): 0.297 µM
- IC50 (second compound 10 µM): < 0.0316 µM
- viability, T/C [4]: 140%
- viability, T/C (second compound 0.0316 µM, first compound 0.1 µM): 118%
- viability, T/C [6]: 83.6%
- viability, T/C (second compound 0.0316 µM, first compound 1 µM): 55.6%
- viability, T/C (second compound 0.0316 µM, first compound 3.16 µM): 11.3%
- viability, T/C (second compound 0.0316 µM, first compound 10 µM): 1.72%
- viability, T/C [10]: 99.8%
- viability, T/C (second compound 0.1 µM, first compound 0.1 µM): 97.5%
- viability, T/C [12]: 82%
- viability, T/C (second compound 0.1 µM, first compound 1 µM): 41.1%
- viability, T/C (second compound 0.1 µM, first compound 3.16 µM): 13.1%
- viability, T/C (second compound 0.1 µM, first compound 10 µM): 1.51%
- viability, T/C [16]: 91.6%
- viability, T/C (second compound 0.316 µM, first compound 0.1 µM): 95.1%
- viability, T/C [18]: 55.5%
- viability, T/C (second compound 0.316 µM, first compound 1 µM): 38.9%
- viability, T/C (second compound 0.316 µM, first compound 3.16 µM): 11.9%
- viability, T/C (second compound 0.316 µM, first compound 10 µM): 1%
- viability, T/C [22]: 68.2%
- viability, T/C (second compound 1 µM, first compound 0.1 µM): 59.6%
- viability, T/C [24]: 44.3%
- viability, T/C (second compound 1 µM, first compound 1 µM): 44.8%
- viability, T/C (second compound 1 µM, first compound 3.16 µM): 8.25%
- viability, T/C (second compound 1 µM, first compound 10 µM): 0.83%
- viability, T/C [28]: 56.4%
- viability, T/C (second compound 3.16 µM, first compound 0.1 µM): 62%
- viability, T/C [30]: 41.3%
- viability, T/C (second compound 3.16 µM, first compound 1 µM): 40.1%
- viability, T/C (second compound 3.16 µM, first compound 3.16 µM): 8.56%
- viability, T/C (second compound 3.16 µM, first compound 10 µM): 0.74%
- viability, T/C [34]: 54.4%
- viability, T/C (second compound 10 µM, first compound 0.1 µM): 46.4%
- viability, T/C [36]: 47%
- viability, T/C (second compound 10 µM, first compound 1 µM): 39.9%
- viability, T/C (second compound 10 µM, first compound 3.16 µM): 2.37%
- viability, T/C (second compound 10 µM, first compound 10 µM): 0.53%

SMILES: Cc1[nH]c2ccccc2c1CCNCc1ccc(/C=C/C(=O)NO)cc1 + Cc1cnc(CNC(=O)c2c(=O)c3ccc(N4CCCN(C)CC4)nc3n3c2sc2ccccc23)cn1
- IC50 (second compound 0.0316 µM): 0.14 µM
- IC50 (second compound 0.1 µM): 0.122 µM
- IC50 (second compound 0.316 µM): 0.0637 µM
- IC50 (second compound 1 µM): 0.0177 µM
- IC50 (second compound 3.16 µM): < 0.000999 µM
- IC50 (second compound 10 µM): < 0.000999 µM
- viability, T/C [1]: 86.4%
- viability, T/C [2]: 87.7%
- viability, T/C [3]: 129%
- viability, T/C [4]: 95.2%
- viability, T/C [5]: 67.7%
- viability, T/C [6]: 7.24%
- viability, T/C [7]: 107%
- viability, T/C [8]: 86.6%
- viability, T/C [9]: 106%
- viability, T/C [10]: 84.3%
- viability, T/C [11]: 60.7%
- viability, T/C [12]: 1.3%
- viability, T/C [13]: 88.4%
- viability, T/C [14]: 75.8%
- viability, T/C [15]: 86.2%
- viability, T/C [16]: 67.8%
- viability, T/C [17]: 37.9%
- viability, T/C [18]: 2.14%
- viability, T/C [19]: 62.9%
- viability, T/C [20]: 53.8%
- viability, T/C [21]: 56.3%
- viability, T/C [22]: 43%
- viability, T/C [23]: 33%
- viability, T/C [24]: 0.07%
- viability, T/C [25]: 51.1%
- viability, T/C [26]: 48%
- viability, T/C [27]: 38.5%
- viability, T/C [28]: 40.5%
- viability, T/C [29]: 19.6%
- viability, T/C [30]: 0.2%
- viability, T/C [31]: 33.8%
- viability, T/C [32]: 32.9%
- viability, T/C [33]: 47%
- viability, T/C [34]: 37%
- viability, T/C [35]: 0.26%
- viability, T/C [36]: 0.36%

SMILES: Cn1ncnc1[C@H]1c2n[nH]c(=O)c3cc(F)cc(c23)N[C@@H]1c1ccc(F)cc1 + Cc1cnc(CNC(=O)c2c(=O)c3ccc(N4CCCN(C)CC4)nc3n3c2sc2ccccc23)cn1
- IC50 (second compound 0.0316 µM): > 0.316 µM
- IC50 (second compound 0.1 µM): > 0.316 µM
- IC50 (second compound 0.316 µM): > 0.316 µM
- IC50 (second compound 1 µM): 0.285 µM
- IC50 (second compound 3.16 µM): 0.0327 µM
- IC50 (second compound 10 µM): < 0.000999 µM
- viability, T/C [1]: 111%
- viability, T/C [2]: 87.7%
- viability, T/C [3]: 104%
- viability, T/C [4]: 107%
- viability, T/C [5]: 95.9%
- viability, T/C [6]: 102%
- viability, T/C [7]: 109%
- viability, T/C [8]: 101%
- viability, T/C [9]: 98.7%
- viability, T/C [10]: 94%
- viability, T/C [11]: 115%
- viability, T/C [12]: 116%
- viability, T/C [13]: 86.1%
- viability, T/C [14]: 84.1%
- viability, T/C [15]: 88.4%
- viability, T/C [16]: 93.2%
- viability, T/C [17]: 79%
- viability, T/C [18]: 71.9%
- viability, T/C [19]: 65.7%
- viability, T/C [20]: 66.1%
- viability, T/C [21]: 52.5%
- viability, T/C [22]: 62.5%
- viability, T/C [23]: 51.5%
- viability, T/C [24]: 49.4%
- viability, T/C [25]: 56.6%
- viability, T/C [26]: 47.2%
- viability, T/C [27]: 51.5%
- viability, T/C [28]: 49.5%
- viability, T/C [29]: 52.3%
- viability, T/C [30]: 46.2%
- viability, T/C [31]: 43.3%
- viability, T/C [32]: 44.1%
- viability, T/C [33]: 52.4%
- viability, T/C [34]: 45.1%
- viability, T/C [35]: 51%
- viability, T/C [36]: 46.7%
